According to ChEMBL document CHEMBL1137925, “SAR development of a selective 5-HT1D antagonist/serotonin reuptake inhibitor lead using rapid parallel synthesis” (Bioorg Med Chem Lett, 2004):

Columns and labels:
[1] = biological target: 5-hydroxytryptamine receptor 1B (Homo sapiens, UniProt P28222); experiment: Binding affinity towards human 5-hydroxytryptamine 1B receptor in L-M(tk-) cells using [3H]GR-125743 as radioligand; type: cell-based
[2] = biological target: 5-hydroxytryptamine receptor 1D (Homo sapiens, UniProt P28221); experiment: Binding affinity towards human 5-hydroxytryptamine 1D receptor in L-M(tk-) cells using [3H]GR-125743 as radioligand; type: cell-based
Chain of 5-hydroxytryptamine receptor 1D (P28221 whole entry): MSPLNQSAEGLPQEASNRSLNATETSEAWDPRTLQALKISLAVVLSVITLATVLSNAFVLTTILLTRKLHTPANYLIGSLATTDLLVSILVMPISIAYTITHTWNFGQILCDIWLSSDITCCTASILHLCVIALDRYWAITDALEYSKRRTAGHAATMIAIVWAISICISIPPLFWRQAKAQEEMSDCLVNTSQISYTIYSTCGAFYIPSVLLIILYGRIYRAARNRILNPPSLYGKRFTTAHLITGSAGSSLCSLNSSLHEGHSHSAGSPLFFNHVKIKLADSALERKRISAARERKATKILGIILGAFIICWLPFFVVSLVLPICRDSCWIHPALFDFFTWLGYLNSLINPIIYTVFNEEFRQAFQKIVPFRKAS

[3] = biological target: T1, Adrenergic receptor alpha-1 (Rattus norvegicus, UniProt P15823+P23944+P43140); experiment: Binding affinity determined against alpha-1 adrenergic receptor in rat cortex membranes using [3H]prazosin as radioligand; type: cell membranes
T1 sequence (P15823 whole entry): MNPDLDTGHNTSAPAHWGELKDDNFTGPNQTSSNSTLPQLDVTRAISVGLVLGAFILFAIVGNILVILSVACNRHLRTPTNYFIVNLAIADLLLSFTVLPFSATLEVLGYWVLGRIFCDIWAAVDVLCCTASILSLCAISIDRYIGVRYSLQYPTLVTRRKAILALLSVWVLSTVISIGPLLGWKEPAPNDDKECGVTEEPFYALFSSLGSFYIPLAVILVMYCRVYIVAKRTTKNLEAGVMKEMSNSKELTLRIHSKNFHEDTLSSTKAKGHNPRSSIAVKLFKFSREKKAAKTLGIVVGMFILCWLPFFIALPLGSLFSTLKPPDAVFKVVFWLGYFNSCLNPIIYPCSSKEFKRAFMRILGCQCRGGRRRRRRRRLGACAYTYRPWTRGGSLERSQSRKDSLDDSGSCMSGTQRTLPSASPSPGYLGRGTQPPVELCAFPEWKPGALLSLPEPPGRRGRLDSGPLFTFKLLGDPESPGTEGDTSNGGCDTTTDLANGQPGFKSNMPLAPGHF
T1 sequence (P23944 whole entry): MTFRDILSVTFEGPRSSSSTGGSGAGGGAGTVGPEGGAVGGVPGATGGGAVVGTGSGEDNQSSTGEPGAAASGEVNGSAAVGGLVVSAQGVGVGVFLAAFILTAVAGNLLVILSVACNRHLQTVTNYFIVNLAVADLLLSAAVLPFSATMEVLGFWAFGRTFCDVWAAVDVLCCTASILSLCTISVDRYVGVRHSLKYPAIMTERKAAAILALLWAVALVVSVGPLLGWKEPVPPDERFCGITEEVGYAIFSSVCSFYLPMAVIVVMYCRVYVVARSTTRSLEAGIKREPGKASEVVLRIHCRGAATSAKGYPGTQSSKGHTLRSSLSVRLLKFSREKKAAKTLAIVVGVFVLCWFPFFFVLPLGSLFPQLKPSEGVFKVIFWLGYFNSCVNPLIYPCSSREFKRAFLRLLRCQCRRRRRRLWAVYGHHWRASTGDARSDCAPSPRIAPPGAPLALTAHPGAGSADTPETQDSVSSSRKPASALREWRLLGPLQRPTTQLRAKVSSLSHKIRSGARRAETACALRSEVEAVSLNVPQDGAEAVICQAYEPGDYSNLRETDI
T1 sequence (P43140 whole entry): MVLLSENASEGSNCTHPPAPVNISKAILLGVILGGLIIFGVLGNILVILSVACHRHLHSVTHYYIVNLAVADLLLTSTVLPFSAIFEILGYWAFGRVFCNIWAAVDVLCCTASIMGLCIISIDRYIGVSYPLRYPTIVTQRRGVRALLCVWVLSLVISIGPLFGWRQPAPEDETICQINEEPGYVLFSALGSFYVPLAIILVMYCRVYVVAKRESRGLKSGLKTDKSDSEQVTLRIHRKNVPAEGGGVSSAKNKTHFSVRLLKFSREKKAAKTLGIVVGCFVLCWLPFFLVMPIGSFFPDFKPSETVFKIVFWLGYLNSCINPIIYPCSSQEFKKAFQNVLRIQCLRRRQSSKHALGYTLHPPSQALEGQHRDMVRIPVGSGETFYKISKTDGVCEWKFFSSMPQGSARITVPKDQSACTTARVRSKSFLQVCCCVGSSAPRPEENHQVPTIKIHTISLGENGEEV

D(2) dopamine receptor = D(2) dopamine receptor (Rattus norvegicus, UniProt P61169); experiment: Binding affinity determined against dopamine receptor D2 in rat caudate membranes using [3H]- raclopride as radioligand; type: cell membranes
Chain of D(2) dopamine receptor (P61169 whole entry): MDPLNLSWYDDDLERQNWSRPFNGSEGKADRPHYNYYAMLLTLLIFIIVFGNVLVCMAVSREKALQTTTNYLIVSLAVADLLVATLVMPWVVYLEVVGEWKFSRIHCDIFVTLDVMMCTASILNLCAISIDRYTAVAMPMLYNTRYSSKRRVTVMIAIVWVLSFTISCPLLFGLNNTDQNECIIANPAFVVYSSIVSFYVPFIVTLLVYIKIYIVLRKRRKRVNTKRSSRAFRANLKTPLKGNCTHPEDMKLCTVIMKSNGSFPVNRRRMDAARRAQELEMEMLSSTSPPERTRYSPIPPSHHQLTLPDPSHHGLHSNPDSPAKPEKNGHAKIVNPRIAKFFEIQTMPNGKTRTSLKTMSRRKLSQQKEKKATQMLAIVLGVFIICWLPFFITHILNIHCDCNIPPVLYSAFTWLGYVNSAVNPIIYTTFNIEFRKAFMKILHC

[4] = biological target: Sodium-dependent serotonin transporter (Rattus norvegicus, UniProt P31652); experiment: In vitro binding affinity towards serotonin transporter using [3H]citalopram as radioligand in rat cerebral cortex membranes; type: cell membranes, Membrane
Chain of Sodium-dependent serotonin transporter (P31652 whole entry): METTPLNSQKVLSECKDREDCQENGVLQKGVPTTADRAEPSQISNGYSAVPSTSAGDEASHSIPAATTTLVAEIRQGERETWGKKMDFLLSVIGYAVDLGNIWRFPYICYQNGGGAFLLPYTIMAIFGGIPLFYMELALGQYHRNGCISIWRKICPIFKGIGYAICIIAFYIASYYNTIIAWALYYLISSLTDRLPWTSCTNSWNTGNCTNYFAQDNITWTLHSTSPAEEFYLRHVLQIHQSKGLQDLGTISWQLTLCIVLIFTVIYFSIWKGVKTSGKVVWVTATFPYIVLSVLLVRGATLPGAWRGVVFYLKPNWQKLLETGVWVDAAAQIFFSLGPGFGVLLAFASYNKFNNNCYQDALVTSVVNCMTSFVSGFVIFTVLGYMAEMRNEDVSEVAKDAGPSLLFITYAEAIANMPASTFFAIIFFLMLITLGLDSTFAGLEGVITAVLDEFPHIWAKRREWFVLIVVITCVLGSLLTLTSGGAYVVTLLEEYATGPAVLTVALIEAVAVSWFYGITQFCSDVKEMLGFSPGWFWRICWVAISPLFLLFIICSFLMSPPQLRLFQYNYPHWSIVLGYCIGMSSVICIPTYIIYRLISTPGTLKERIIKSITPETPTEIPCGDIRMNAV

Cavia porcellus = species on record: Cavia porcellus; experiment: Ability at 30 uM to potentiate potassium-stimulated [3H]5-HT release from preloaded guinea pig cortical slices; type: functional

Chain of 5-hydroxytryptamine receptor 1B (P28222 whole entry): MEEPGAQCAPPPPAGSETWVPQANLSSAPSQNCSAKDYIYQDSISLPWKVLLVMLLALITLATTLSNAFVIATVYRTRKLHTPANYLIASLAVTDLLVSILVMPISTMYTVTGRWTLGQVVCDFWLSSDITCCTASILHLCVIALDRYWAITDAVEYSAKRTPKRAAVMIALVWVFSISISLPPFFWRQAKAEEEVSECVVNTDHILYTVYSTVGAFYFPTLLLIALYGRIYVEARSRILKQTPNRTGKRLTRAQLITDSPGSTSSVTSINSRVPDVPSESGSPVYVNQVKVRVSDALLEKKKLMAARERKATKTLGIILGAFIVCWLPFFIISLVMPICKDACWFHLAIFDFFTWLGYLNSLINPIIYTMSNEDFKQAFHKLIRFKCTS

SMILES | Ki [1] [nM] | Ki [2] [nM] | Ki [3] [nM] | Ki (D(2) dopamine receptor) [nM] | Ki [4] [nM] | Release (Cavia porcellus) [%]
NC(=O)c1ccc2c(c1)CCOC2CCN1CCN(c2c[nH]c3cc(F)ccc23)CC1 (configuration not stated) | 310 | 74 | 5.8 | 7.1 | 19 | –
NC(=O)c1ccc2c(c1)CCOC2CCN1CC=C(c2c[nH]c3c(F)cccc23)CC1 (configuration not stated) | > 1000 | 26 | 26 | 3.8 | 0.76 | –
NC(=O)c1ccc2c(c1)CCOC2CCN1CC=C(c2c[nH]c3c(F)c(F)ccc23)CC1 (configuration not stated) | > 1000 | 57 | 16 | 6.7 | 0.3 | –
NC(=O)c1ccc2c(c1)CCOC2CCN1CCC(c2nsc3cc(F)ccc23)CC1 (configuration not stated) | 200 | 40 | – | – | 53 | –
NC(=O)c1ccc2c(c1)CCOC2CCN1CC=C(c2c[nH]c3cc(Cl)ccc23)CC1 (configuration not stated) | > 1000 | 145 | – | – | 0.38 | –
NC(=O)c1ccc2c(c1)CCOC2CCN1CCC(c2c[nH]c3cc(F)ccc23)C1 (configuration not stated) | 96 | 40 | 1.2 | 28 | 2.1 | –
NC(=O)c1ccc2c(c1)CCOC2CCN1CC=C(c2c[nH]c3ccc(F)cc23)CC1 (configuration not stated) | > 1000 | 130 | 101 | 2.1 | 1.6 | –
NC(=O)c1ccc2c(c1)CCOC2CCN1CC=C(c2c[nH]c3cc(F)ccc23)CC1 (configuration not stated) | 281 | 56 | 16 | 4.7 | 0.11 | 36
NC(=O)c1ccc2c(c1)CCOC2CCN1CC=C(c2[nH]nc3cc(F)ccc23)CC1 (configuration not stated) | 210 | 24 | 2.1 | 33 | 0.5 | –
NC(=O)c1ccc2c(c1)CCOC2CCN1CC=C(c2cccc3ccc(F)cc23)CC1 (configuration not stated) | 210 | 26 | 202 | 87 | 13 | –
COc1ccc2[nH]cc(C3=CCN(CCC4OCCc5cc(C(N)=O)ccc54)CC3)c2c1 (configuration not stated) | 316 | 31 | 75 | 26 | 3.5 | 42
NC(=O)c1ccc2c(c1)CCOC2CCN1CC=C(c2csc3cc(F)ccc23)CC1 (configuration not stated) | 186 | 20 | 17 | 3.8 | 1 | –
NC(=O)c1ccc2c(c1)CCO[C@@H]2CCN1CC=C(c2c[nH]c3c(F)cccc23)CC1 | 199 | 25 | 1.7 | 48 | 0.2 | –
NC(=O)c1ccc2c(c1)CCO[C@H]2CCN1CC=C(c2c[nH]c3c(F)cccc23)CC1 | 387 | 15 | 2.8 | 7 | 0.3 | –
C[C@H]1CC(c2c[nH]c3cc(F)ccc23)CCN1CCC1OCCc2cc(C(N)=O)ccc21 (some centres not stated) | > 1000 | 28 | 20 | 86 | 0.78 | –
NC(=O)c1ccc2c(c1)CCOC2CCN1CC=C(c2c[nH]c3c(Cl)c(Cl)ccc23)CC1 (configuration not stated) | > 1000 | 165 | – | – | 0.28 | –
N#Cc1cccc2c(C3=CCN(CCC4OCCc5cc(C(N)=O)ccc54)CC3)c[nH]c12 (configuration not stated) | > 1000 | 130 | 134 | 15 | 2.1 | –
NC(=O)c1ccc2c(c1)CCOC2CCN1CCC(c2cccc3ccccc23)CC1 (configuration not stated) | 73 | 14 | 30 | 50 | 15 | 52
NC(=O)c1ccc2c(c1)CCOC2CCN1CC=C(c2noc3cc(F)ccc23)CC1 (configuration not stated) | 155 | 63 | 3 | 37 | 8 | –
Cn1cc(C2=CCN(CCC3OCCc4cc(C(N)=O)ccc43)CC2)c2ccc(F)cc21 (configuration not stated) | > 1000 | 65 | 17 | 73 | 0.98 | –
Cn1nc(C2=CCN(CCC3OCCc4cc(C(N)=O)ccc43)CC2)c2ccc(F)cc21 (configuration not stated) | > 1000 | 51 | 16 | 183 | 0.54 | –
NC(=O)c1ccc2c(c1)CCOC2CCN1CCC(c2c[nH]c3cc(F)ccc23)CC1 (configuration not stated) | 131 | 8.4 | 12 | 19 | 2 | –
NC(=O)c1ccc2c(c1)CCOC2CCN1CC=C(c2coc3cc(F)ccc23)CC1 (configuration not stated) | 155 | 28 | 2.8 | 21 | 0.29 | –
NC(=O)c1ccc2c(c1)CCOC2CCN1CC=C(c2cccc3ccccc23)CC1 (configuration not stated) | 153 | 5.4 | 224 | 167 | 3.2 | 11
NC(=O)c1ccc2c(c1)CCOC2CCN1CC=C(c2ccc(F)c3ccoc23)CC1 (configuration not stated) | – | 27 | 31 | 52 | 1.9 | –
NC(=O)c1ccc2c(c1)CCOC2CCN1CC=C(c2c[nH]c3cc(C(F)(F)F)ccc23)CC1 (configuration not stated) | > 1000 | 122 | 190 | 8.6 | 0.99 | –
NC(=O)c1ccc2c(c1)CCOC2CCN1CC=C(c2ccc3cc(F)ccc3c2)CC1 (configuration not stated) | > 1000 | 71 | 36 | 491 | 2.2 | –
